The numbers were not newly measured in patent publication US20180042845A1, “PREPARATIONS OF CANNABIS EMULSIONS AND METHODS THEREOF” (ONE WORLD CANNABIS LTD., priority 2015, published 2018), which cites them from elsewhere.

The target of one data set is CB2 receptor (Homo sapiens, UniProt P34972).
CB2 receptor, sequence (P34972 whole entry): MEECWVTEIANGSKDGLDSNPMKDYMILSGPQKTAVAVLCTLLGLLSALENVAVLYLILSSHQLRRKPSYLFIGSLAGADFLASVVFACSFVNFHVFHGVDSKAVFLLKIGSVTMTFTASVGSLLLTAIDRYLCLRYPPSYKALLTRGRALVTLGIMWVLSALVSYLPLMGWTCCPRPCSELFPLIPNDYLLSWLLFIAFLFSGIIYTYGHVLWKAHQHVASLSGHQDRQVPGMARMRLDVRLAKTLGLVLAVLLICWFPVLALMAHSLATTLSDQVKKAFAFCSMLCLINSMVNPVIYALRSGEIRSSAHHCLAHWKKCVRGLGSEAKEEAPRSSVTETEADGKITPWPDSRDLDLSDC

`C=C(C)[C@@H]1CCC(C)=C[C@H]1c1c(O)cc(CCCCC)cc1O` [Cannabidiol]: the “Affinity for CB2 receptors” value at CB2 receptor is recorded as “very low affinity”.

For the compound `CCCCCc1cc(O)c2c(c1)OC(C)(C)[C@@H]1CCC(C)=C[C@@H]21` [THC, Tetrahydrocannabinol], where the note is “oral, first pass hepatic metabolism and high lipid solubility”, the “Fraction of administered dose reaching systemic circulation” value is 10-20%. Further, where the note is “single dose”, the “Fraction absorbed after a single oral dose” value is on record as 90-95%.
